These results are taken from US8092974B2, “Production method of toner for developing electrostatic image” (Zeon Corporation, priority 2006, dated 2012).

This assay in a line: Average number of small diameter microparticles per colored resin particle (SEM count after polymerization). As to conditions: aqueous dispersion after polymerization process; SEM 5,000 magnification, 25 particles. The text has this: The average number of small diameter microparticles per colored resin particle is a value calculated in such a manner that aqueous dispersion containing colored resin particles after polymerization process is collected and prepared to be a sample for measurement with a scanning electron microscopy (SEM); the prepared sample is photographed at 5,000 magnification in five fields of view by means of the scanning electron microscopy; five colored resin particles are randomly selected in each image; the number of small diameter microparticles observed on the surface of 25 colored resin particles in total is counted; and the average number of small microparticles per colored resin is calculated therefrom.
The number of small diameter microparticles per colored resin particle can be measured by means of a commercially available scanning electron microscopy. For example, it can be measured by means of a field emission scanning electron microscopy (product name: S-4700; manufactured by: Hitachi, Ltd.). […]
The sample was randomly photographed in five fields of view, and five colored resin particles were randomly selected in each image to count the number of small diameter microparticles observed on the surface of 25 colored resin particles in total. The average number of small diameter microparticles per colored resin particle was calculated therefrom.

Structures are written as SMILES.

Regarding `Oc1ccc(O)cc1` [A, Hydroquinone], the “Average number of small diameter microparticles per colored resin particle” value is recorded as “weak”.
